{"source": "patent US20100056645A1", "about": "“Chromatographic Media and Chromatographic Equipment Storage Solutions and Use Thereof” (priority 2007, published 2010)", "origin": "cited, not measured here", "test_system": "gram positive bacteria", "data": [{"smiles": "OCc1ccccc1", "note": "[benzyl alcohol]", "values": [{"measurement": "pH of optimal bactericidal activity", "value": "< 5.0"}]}]}
